Reference: the supplement of paper PMC5908809

Tests used:
[1] = tested on: normal NK cells expanded with K562-aAPC; assay: percent inhibition of viability; higher = more inhibition; details: 72 h, IL-2 2.5 ng/mL
Experimental: (§1)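 Drug sensitivity and resistance testing on K562-aAPC-expanded normal NK cells: 5 concentrations (10-fold steps over a 10,000-fold range), 72 h at 37 °C, viability by CellTiter-Glo normalised to DMSO and benzethonium chloride controls; DSS from the fitted curve.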

[2] = tested on: DERL-7 (IL-2 2.5 ng/mL); assay: as above; details: 72 h
[3] = tested on: IMC-1 (IL-2 20 ng/mL); assay: as above; details: 72 h
[4] = tested on: KAI3 (IL-2 2.5 ng/mL); assay: as above; details: 72 h
[5] = tested on: KHYG-1 (IL-2 2.5 ng/mL); assay: as above; details: 72 h
[6] = tested on: NK-92 (IL-2 2.5 ng/mL); assay: as above; details: 72 h
[7] = tested on: NK-YS (IL-2 2.5 ng/mL); assay: as above; details: 72 h
[8] = tested on: NKL (IL-2 2.5 ng/mL); assay: as above; details: 72 h
[9] = tested on: SNK-6 (IL-2 2.5 ng/mL); assay: as above; details: 72 h
[10] = tested on: YT (IL-2 2.5 ng/mL); assay: as above; details: 72 h
[11] = tested on: normal primary NK cells, pool 1 (3 donors) (IL-2 2.5 ng/mL); assay: as above; details: 72 h
[12] = tested on: normal primary NK cells, pool 1 (3 donors), resting (IL-2 0 ng/mL); assay: as above; details: 72 h
[13] = tested on: normal primary NK cells, pool 2 (3 donors) (IL-2 2.5 ng/mL); assay: as above; details: 72 h
[14] = tested on: normal primary NK cells, pool 3 (3 donors) (IL-2 2.5 ng/mL); assay: as above; details: 72 h
[15] = tested on: normal NK cells expanded with K562-aAPC; assay: drug sensitivity score (DSS) (DSS units); higher = more sensitive; extreme values may be limits of the assay; details: 72 h; IL-2 2.5 ng/mL
Experimental: as §1

[16] = tested on: DERL-7 (IL-2 2.5 ng/mL); assay: as above; details: 72 h
[17] = tested on: IMC-1 (IL-2 20 ng/mL); assay: as above; details: 72 h
[18] = tested on: KAI3 (IL-2 2.5 ng/mL); assay: as above; details: 72 h
[19] = tested on: KHYG-1 (IL-2 2.5 ng/mL); assay: as above; details: 72 h
[20] = tested on: NK-92 (IL-2 2.5 ng/mL); assay: as above; details: 72 h
[21] = tested on: NK-YS (IL-2 2.5 ng/mL); assay: as above; details: 72 h
[22] = tested on: NKL (IL-2 2.5 ng/mL); assay: as above; details: 72 h
[23] = tested on: SNK-6 (IL-2 2.5 ng/mL); assay: as above; details: 72 h
[24] = tested on: YT (IL-2 2.5 ng/mL); assay: as above; details: 72 h
[25] = tested on: normal primary NK cells, pool 1 (3 donors) (IL-2 2.5 ng/mL); assay: as above; details: 72 h
[26] = tested on: normal primary NK cells, pool 1 (3 donors), resting (IL-2 0 ng/mL); assay: as above; details: 72 h
[27] = tested on: normal primary NK cells, pool 2 (3 donors) (IL-2 2.5 ng/mL); assay: as above; details: 72 h
[28] = tested on: normal primary NK cells, pool 3 (3 donors) (IL-2 2.5 ng/mL); assay: as above; details: 72 h

Clc1ccccc1C(c1ccccc1)(c1ccccc1)n1cccn1 [TRAM-34] (max concentration tested 1000 nM)
percent inhibition of viability [%]
Details	0.1 nM	1 nM	10 nM	100 nM	1000 nM
[1]	-6.55	1.68	-0.18	9.02	12.7
[2]	2.4	-1.24	1.99	-0.74	3.63
[3]	-7.73	1.38	0.84	6.67	8.82
[4]	-2.69	4.59	-1.47	2.61	4.51
[5]	-1.11	0.96	-3.26	0.95	-0.5
[6]	-8.56	-5.28	-2.17	-14.1	11.6
[7]	1.9	0.93	2.82	2.55	8.67
[8]	-1.68	-6.27	6.64	4.13	5.01
[9]	5.28	12.6	2.07	24	3.1
[10]	-3.41	-5.82	-7.53	-11.9	12.2
[11]	3.23	-13.1	1.01	-11	-5.83
[12]	-5.83	-36.5	-10.7	-18.8	-3.17
[13]	-11.6	-1.76	12.1	-4.19	0.97
[14]	-3.16	-4.73	5.06	-3.53	6.24

Details	drug sensitivity score
[15]	0.49
[16]	0
[17]	0
[18]	0
[19]	0
[20]	0
[21]	0
[22]	0
[23]	0
[24]	0
[25]	0
[26]	0
[27]	0
[28]	0

COc1ccc(S(=O)(=O)Nc2cccnc2Nc2ccc(O)cc2)cc1 [ABT-751] (max concentration tested 10000 nM)
percent inhibition of viability [%]
Details	1 nM	10 nM	100 nM	1000 nM	10000 nM
[1]	2.34	4.2	3.33	57.7	58.5
[2]	5.8	5.64	3.05	99.1	99
[3]	1.24	2.22	4.35	99.6	99.6
[4]	7.18	10.3	18.4	62.9	74.9
[5]	-0.83	2.36	14.9	104	104
[6]	4.6	3.35	37.3	92.8	91.3
[7]	-0.79	0.15	23.9	70.5	71.2
[8]	-0.28	-14.8	-13.9	90.3	83.4
[9]	3.22	10.5	50.7	81.7	89.2
[10]	3.24	3.8	13.6	100	96.2
[11]	-9.52	-12.6	-7.29	0.64	11.6
[12]	1.2	-5.61	-12	16.9	49.5
[13]	0.28	3.85	0.94	8.44	14.7
[14]	4.41	1.96	4.78	13.2	16.7

Details	drug sensitivity score
[15]	11.1
[16]	18.2
[17]	18.5
[18]	13.8
[19]	20.6
[20]	21.4
[21]	16.3
[22]	15.4
[23]	21.9
[24]	20.3
[25]	0.04
[26]	5.02
[27]	0.52
[28]	1.19
